Measurements taken from patent US20080167272A1, “Thalidomide metabolites and methods of use” (Auckland Uniservices Limited, priority 2005, published 2008).

Columns and labels:
Colon 38 tumours = assay: Tumour growth delay, Colon 38 tumours in mice, combination with DMXAA; format: in vivo
Description: Mice (C57B1/6 bred at the Animal Resources Unit, University of Auckland, New Zealand) were implanted with Colon 38 tumours, obtained originally from the Mason Research Institute (Auckland, New Zewaland) by transferring 1 mm^3 pieces of the tumour into a subcutaneous opening in the left flank of anaesthetized mice. The mice with tumours were used for growth delay experiments when tumours had reached approximately 3-5 mm in diameter. Mice were divided into 10 groups, an untreated control group, a group treated intraperitoneally (i.p.) with DMXAA (5,6-dimethylxanthenone-4-acetic acid, synthesized at the Auckland Cancer Society Research Centre—ACSRC (Auckland, New Zealand) at 25 mg/kg only, and 8 groups treated with DMXAA together with the hydrolytic thalidomide metabolites PG, PiG, CG also synthesized at the ACSRC as previously described (Lu et al, 2003), or thalidomide at 100 mg/kg, or together with CG or thalidomide at 20 mg/kg or 4 mg/kg. DMXAA was dissolved in saline at 2.5 mg/ml and injected i.p. into mice in a volume of 10 μl/g body weight. Thalidomide, PG, PiG and CG were dissolved in dimethylsulphoxide at 40, 8 or 1.6 mg/ml (for dosages of 100, 20, 4 mg/kg respectively) and injected i.p. in a volume of 2.5 μl/g body weight. Tumours were measured 2-3 times weekly after treatment and tumour volumes were calculated as 0.52×a^2×b, where a and b are the minor and major axes of the tumour. The arithmetic means and standard errors were calculated for each point, counting cured animals as having zero tumour volume, and expressed as fractions of the pre-treatment volume. Growth delay was determined as the difference in the number of days required for the tumour to reach four times the pre-treatment volume.

TNF = assay: LPS-induced TNF production by HPBL in culture; format: cell-based, human; settings: FIG. 5
Procedure: Blood (20 ml) each from seven healthy volunteers was collected into heparinized tubes, and was overlayed on top of 10 ml of Ficoll-Paque Plus (Amersham Biosciences AB, Uppsala, Sweden) in 50 ml Falcon polypropylene conical tubes (Becton Dickson Labware, Franklin Lakes, N.J.). The tubes were centrifuged for 30 min at 300×g and 4° C., and the layer of cells was removed and re-suspended at 1×10^6 cells/ml in A-MEM medium supplemented with foetal bovine serum (Moregate BioTech Ltd, Hamilton, New Zealand) (10% v/v), streptomycin sulphate (100 μg/ml) and penicillin-G (100 units/ml) (Sigma, St Louis, Mo., USA). Cells were added to a 24-well plate (Nunc, Kamstrup, Roskilde, Denmark) with LPS (Escherichia coli serotype 055:B5; Sigma, St. Louis, Mo., USA) plus thalidomide or CG at 0.04, 0.2, 1, 5, 25 & 100 μg/ml; or PG or PiG at 1, 5 & 25 μg/ml in a final volume of 1 ml. Wells containing cells only and cells plus LPS only were included as controls. After 12 hours of incubation, supernatants were removed and assayed immediately for TNF as described in section 4.
TNF was assayed using a commercially available ELISA kit (OpEIA human or murine TNF kit, PharMingen, San Diego, Calif., USA), according to the manufacturer's instructions. Briefly, samples (100 μl/well) in duplicate together with a serial dilution of TNF (31.25-2000 pg/ml) for the standard curve, were added to flat-bottom 96-well plates pre-coated with immobilised monoclonal anti-TNF antibody and incubated at room temperature for 2 h. The wells were then washed, biotinylated polyclonal antibody to TNF was added, followed by peroxidase-labelled streptavidin, and incubated at room temperature for 1 h. The wells were washed again, and the substrate, tetramethylbenzidine and hydrogen peroxide was added and after 10 min the reaction was stopped with 2 N sulphuric acid. The absorbance at 450 nm was determined using a microtitre plate reader.

[1] = Stability of CG in PBS at different pH (HPLC); format: physicochemical
Procedure: CG (50 μM) with 60 μM of phenacetin (as an internal standard) at pH 3.5, 6.8, 7.1, 7.4, 7.7 and 8 in 8 mm clear polyethylene starburst conical snap vials (Alltech, Deerfield, Ill., USA), was incubated in the autosampler (Waters Associates, Milford, Mass., USA) at 37° C. Aliquots (50 μl) of the solutions were then automatically loaded at 0, 6, 12, 18 and 24 hours after incubation onto a Waters Breeze chromatograph (Waters Associates, Milford, Mass., USA) which consisted of a Model 717plus autosampler, Model 1525 binary pump and Model 2487 dual wavelength absorbance detector.
Compounds were separated using a previously described (Chung et al, 2004) HPLC assay for thalidomide using a 100×4.6 mm stainless steel Luna 5 μm Phenylhexyl column (Phenomenex, Torrance, Calif., USA) and a mobile phase (Milli Q water:acetonitrile 10:1.3 v/v) that was pumped at a flow rate of 2 ml/min. Thalidomide and phenacetin were detected at ultraviolet wavelengths of 220 and 248 nm, respectively. The retention times of phenacetin and thalidomide and were 13 and 11 min, respectively. Data acquisition and integration was achieved using Breeze™ Software, Milford, Calif., USA. Each HPLC run included standard curves of thalidomide (0.6-100 μM) or CG (0.2-50 μM) with phenacetin (60 μM) as the internal standard in PBS. […] The r^2 of calibration curves of thalidomide was 0.9995, and for CG calibration curves was 0.9999. The intra-assay recovery was 90-110% (n=8) and the CV was 5-9% (n=4), while the inter-assay recovery was 96-104% (n=15) and the CV was 2-4% (n=6).
To construct the calibration curve, the peak-area ratios to the internal standard were plotted against thalidomide concentration and the best-fit straight line was obtained by linear regression analysis. The correlation coefficient of the calibration curves had r^2 values of greater than 0.9995. The thalidomide/phenacetin peak ratio was determined for all samples and the concentration of thalidomide in each sample was determined from the calibration curve.
The ratio of the area of the thalidomide peak or the CG peak to that of the phenacetin peak in the HPLC chromatographs then calculated and the concentration of thalidomide and CG was determined using the calibration curve. The percentage degradation of CG was calculated as: [1-(CG concentration after incubation/starting concentration)]×100.

stability in solution ([1]; low pH): unstable
CG remaining in the solution after 24 h ([1]; pH 3.5, 37° C.): 21.5%
CG transformed into thalidomide ([1]; pH 3.5, 24 h incubation): 42%
thalidomide in CG solutions after incubation ([1]; pH 6.8, 7.1, 7.4, 7.7 or 8): not detected
CG remaining in solution after 24 h ([1]; pH 6.8, 37° C.): 81.75%
CG remaining in solution after 24 h ([1]; pH 7.1, 37° C.): 50.1%
CG remaining in solution after 24 h ([1]; pH 7.4, 37° C.): 46.6%
CG remaining in the solution after 24 h ([1]; pH 7.7, 37° C.): 8.6%
CG remaining in the solution after 24 h ([1]; pH 8, 37° C.): 0%
stability in solution ([1]; pHs between 6.8-7.4): stable
stability compared with thalidomide ([1]; physiological conditions): more stable than thalidomide
CG degraded ([1]; physiological conditions, after 6 h): 1.3-20%
SMILES: O=C1CCC(NC(=O)c2ccccc2C(=O)O)C(=O)N1 (stereo not drawn) [CG, 2-{[(2,6-Dioxo-3-piperidinyl)amino]carbonyl}benzoic acid]
potentiation of DMXAA-induced anti-tumour effects (Colon 38 tumours; 4 mg/kg co-administered with DMXAA 25 mg/kg, FIG. 1C): neither CG nor thalidomide showed potentiation
tumour volumes at 21 days after treatment compared with DMXAA alone (Colon 38 tumours; 4 mg/kg co-administered with DMXAA 25 mg/kg, FIG. 2): no significant difference
potentiation of DMXAA activity against Colon 38 tumours (Colon 38 tumours; 20 mg/kg co-administered with DMXAA 25 mg/kg, FIG. 1B): more effective than thalidomide plus DMXAA or DMXAA alone
tumour volume at 21 days after treatment compared with DMXAA alone (Colon 38 tumours; 20 mg/kg co-administered with DMXAA 25 mg/kg, FIG. 2): significantly smaller tumour volume than those treated by DMXAA alone
tumour volumes at 21 days after treatment compared with DMXAA alone (Colon 38 tumours; 100 mg/kg co-administered with DMXAA 25 mg/kg, FIG. 2): significantly smaller tumour volumes than those treated by DMXAA alone
inhibition of tumour growth compared with DMXAA alone (Colon 38 tumours; 100 mg/kg i.p. co-administered with DMXAA 25 mg/kg, FIG. 1A): greater inhibition of tumour growth than that of DMXAA alone
tumour growth inhibition compared with thalidomide (Colon 38 tumours; doses at or above 20 mg/kg, combined with DMXAA, FIGS. 1 & 2): greater tumour growth inhibition than thalidomide
effect on LPS-induced TNF production (TNF; HPBL, LPS 100 pg/ml, 12 h, all concentrations tested (PG, PiG: 1, 5, 25 μg/ml)): significantly decreased LPS-induced TNF levels in a dose-dependent manner
TNF inhibition in vitro compared with thalidomide (TNF; human cell system): as active as thalidomide
